# Measurements from PubChem BioAssay (NCI).
#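 Five compound concentrations were applied to cells in 96-well plates for 48 hours; endpoints were derived by simple linear interpolation of the resulting dose-response curve. Definition used: TGI = concentration required for complete inhibition of growth.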
# Experiments:
# Experiment in all cases: NCI tumour cell line growth inhibition, 48 h
# [1] = system: P388 leukemia
# [2] = system: P388/ADR leukemia
# [3] = system: SN12K1 renal
# [4] = system: SNB-78 CNS
# [5] = system: XF 498 CNS
# [6] = system: RXF-631 renal
SMILES,TGI [1] [µM],TGI [2] [µM],TGI [3] [µM],TGI [4] [µM],TGI [5] [µM],TGI [6] [µM]
CCCCCCCCCCCCCCCCCCOCC(COP(=O)([O-])OCC[N+](C)(C)C)OC (stereo unspecified),11,20,24.3,49.2,28.8,–
O=C1c2ccccc2C(=O)c2c(O)ccc(O)c21,–,–,–,> 100,–,–
CC(C)C(=O)/C=C/c1ccc(Cl)c(Cl)c1,–,–,–,> 100,25.1,–
CCOP(=O)(OCC)C1=NC=CC=CC1n1c(-c2ccccc2)nn(CC)c1=O (stereo unspecified),–,–,–,–,–,> 100
COc1cc(C2c3cc4c(cc3[C@@H](Nc3cccc([N+](=O)[O-])c3)C3COC(=O)[C@H]23)OCO4)cc(OC)c1O (stereo partly specified),–,5.58,10.3,53.9,> 40.2,–
CCN(CC)CCCC(C)NC(=O)c1ccc2c(c1)C(=O)c1ccccc1C2=O (stereo unspecified),–,–,–,47.4,21.3,65.5
